From article PMC11270681, “Synthesis and Systematic Investigation of Lepidiline A and Its Gold(I), Silver(I), and Copper(I) Complexes Using In Vitro Cancer Models and Multipotent Stem Cells” (ACS Omega, 2024) come the findings set out here.

Several values for one entry are separate records, joined by “and”; a condition that tells them apart may be missing. Identical values can stand only once.

The test system of one series is Mes-Sa/Dx5. Kind of series: Cytotoxicity, doxorubicin-selected MDR uterine sarcoma line. In kind it is cell-based. As to conditions: Mes-Sa/Dx5 (doxorubicin selected, ABCB1 expressing), fluorescent protein intensity after 144 h. The protocol:
(§1) OVCAR-3 (OVC-3) and OVCAR-8 (OVC-8) ovarian serous adenocarcinomas, IGROV-1 ovarian endometrioid adenocarcinoma, OVCAR-5 (OVC-5) upper gastrointestinal carcinoma, MDA-MB-231 breast adenocarcinoma, and MCF-7 and T-47D invasive breast carcinomas were purchased from the Developmental Therapeutic Program of the National Cancer Institute (NIH, USA) and were cultured in an RPMI medium (Thermo Fisher). Mes-Sa and Mes-Sa/Dx5 uterine sarcoma cell lines were purchased from American Type Culture Collection (ATCC) and were kept in DMEM (Thermo Fisher). Mes-Sa B1 was transfected with the human MDR1 gene, and Mes-Sa mCherry, Mes-Sa B1 mOrange, and Mes-Sa/Dx5 eGFP were engineered to stably express the respective fluorescent proteins previously.[51] Culture media for cancer cells were supplemented with 10% fetal bovine serum, 2 mM L-glutamine, and 100 units/mL penicillin and 100 μg/mL streptomycin (Thermo Fisher). The adipose tissue and bone marrow-derived mesenchymal stem cells (AD-MSC and BM-MSC) were described previously[37] and were kept in DMEM-F12 (Gibco) supplemented with 10% fetal bovine serum, L-glutamine (Thermo Fisher), 0.1% gentamicin (Gibco, 50 mg/mL), and 16 ng/mL fibroblast growth factor 2 (Peprotech). Cells were kept at 37 °C under 5% CO2 and were negative for mycoplasma infection.
(§2) Cytotoxicities of the nonfluorescent cancer cells were assessed with a PrestoBlue cell viability reagent (Thermo Fisher). Briefly, 2500 cells/well were seeded on 384-well plates; then, the next-day drugs were added. After 72 h of incubation, PrestoBlue was added in a 10% final concentration, and after an hour of additional incubation, plates were measured with a PerkinElmer EnSpire plate reader at 555 nm/585 nm excitation/emission wavelengths. Stem cells were seeded on 96-well plates at a density of 5000 cells/well, and the following day, drugs were added for 96 h of incubation; then, viability was assessed with 10% PrestoBlue diluted in PBS. Fluorescent cancer cells were admixed before seeding on 384-well plates at an 800 cells/well density each, thus altogether 2400 cells/well. Drugs were added the following day, and the intensity of the fluorescent proteins was measured after 144 h of incubation at the respective fluorescent channels (excitation/emission, eGFP: 485 nm/510 nm; mCherry: 585 nm/610 nm; mOrange: 545 nm/567 nm). pIC50 values were calculated by a custom program written by Judit Sessler in C#. IC50 values and standard deviation were calculated from average pIC50 values from at least 3 independent measurements.

Series [1] has as its system Mes-Sa. Kind of series: Cytotoxicity, uterine sarcoma parental line. As to conditions: fluorescent protein intensity after 144 h. In kind it is cell-based. As for the experimental part: as §1, §2
Another series deals with OVC-8. Kind of series: Cytotoxicity (PrestoBlue), ovarian cancer line. As to conditions: OVC-8, 72 h incubation. In kind it is cell-based. As for the experimental part: as §1, §2
Another series has as its system im. BM-MSC. Kind of series: Cytotoxicity (PrestoBlue), immortalized bone marrow MSC. The class given is cell-based. To be noted: 96 h incubation. The protocol: as §1, §2
The test system of a further series is BM-MSC. Kind of series: Cytotoxicity (PrestoBlue), bone marrow-derived mesenchymal stem cells. In kind it is cell-based. To be noted: 96 h incubation. As for the experimental part:
as §1, §2

In the next series the test system is AD-MSC. Kind of series: Cytotoxicity (PrestoBlue), adipose-derived mesenchymal stem cells. In kind it is cell-based. To be noted: 96 h incubation. As for the experimental part:
as §1, §2

For a further series, the system named is MSCs. Kind of series: Cytotoxicity, range over MSCs. In kind it is cell-based. To be noted: BMMSC; AD-MSC, BM-MSC, immortalized BM-MSC. As for the experimental part: as §1
(§3) Cytotoxicities of the nonfluorescent cancer cells were assessed with a PrestoBlue cell viability reagent (Thermo Fisher). Briefly, 2500 cells/well were seeded on 384-well plates; then, the next-day drugs were added. After 72 h of incubation, PrestoBlue was added in a 10% final concentration, and after an hour of additional incubation, plates were measured with a PerkinElmer EnSpire plate reader at 555 nm/585 nm excitation/emission wavelengths. Stem cells were seeded on 96-well plates at a density of 5000 cells/well, and the following day, drugs were added for 96 h of incubation; then, viability was assessed with 10% PrestoBlue diluted in PBS. […] IC50 values and standard deviation were calculated from average pIC50 values from at least 3 independent measurements.

Another series deals with cancer lines. Kind of series: Cytotoxicity, range over cancer lines. As to conditions: read-out: IC50 range over non-MDR cancer cells. In kind it is cell-based. The protocol: as §1, §3
In another series the test system is MDA-MB-231. Kind of series: Cytotoxicity (PrestoBlue), breast cancer line. In kind it is cell-based. To be noted: MDA-MB-231, 72 h incubation. The protocol:
as §1, §2

Series [2] deals with MCF-7. Kind of series: H2DCFDA intracellular ROS production assay. In kind it is cell-based. As to conditions: MCF-7, 50 μM, 4 h incubation. The protocol:
(§4) To assess intracellular ROS production, we used a H2DCFDA cellular ROS assay kit (ab113851, Abcam) according to the manufacturer’s instructions. Briefly, 20,000 cells were seeded on 96-well plates. On the following day, cells were washed, and H2DCFDA solution, prepared by avoiding direct light, was added for 45 min. Next, cells were washed, and 50 μM samples of test compounds were aspirated on the cells in a complete and phenol red-free medium (FluoroBrite, Thermo Fisher). At each hour, fluorescence of 2′,7′-dichlorofluorescein (DCF) was measured at 484 nm/535 nm excitation/emission wavelengths. Values were normalized to 0 h measurements. Values indicate at least 3 independent measurements.

Series [3] deals with T-47D. Kind of series: H2DCFDA intracellular ROS production assay. The class given is cell-based. As to conditions: 50 μM, 4 h incubation. As for the experimental part:
as §4

Series [4] deals with Mes-Sa. Kind of series: H2DCFDA intracellular ROS production assay. In kind it is cell-based. To be noted: 50 μM, 4 h incubation. As for the experimental part:
as §4

For another series, the system named is OVC-3. Kind of series: Cytotoxicity (PrestoBlue), ovarian cancer line. The class given is cell-based. To be noted: OVC-3, 72 h incubation. As for the experimental part:
as §1, §2

The test system of a further series is IGROV-1. Kind of series: Cytotoxicity (PrestoBlue), ovarian cancer line. As to conditions: IGROV-1, 72 h incubation. The class given is cell-based. The protocol: as §1, §2
The next series has as its system Mes-Sa B1. Kind of series: Cytotoxicity, MDR1-transfected uterine sarcoma line. The class given is cell-based. As to conditions: Mes-Sa B1 (MDR1 transfected, ABCB1 expressing), fluorescent protein intensity after 144 h. The protocol:
as §1, §2

Series [5] in a line: Stability in serum-free culture medium by HPLC-UV. To be noted: for AUC (HPLC-UV), single measurements 1-5 / AUC (HPLC-UV), average: serum-free culture medium. The class given is physicochemical. As for the experimental part:
Stability of the metal complexes in solution was measured in serum-free culture medium. The compounds were dissolved in DMSO right before the experiment. Solutions of Cu-LA and Ag-LA contained 1% final volume of DMSO, while Au-LA contained 30% DMSO. Samples were taken right after dilution, and after 1 h, 2 h, 4 h, 8 h, 16 h, 32 and 48 h, and measured by HPLC-UV.

The test system of series [6] is 3 ovarium cancer lines (IGROV-1, OVC-3, and OVC-8). Kind of series: Cytotoxicity, range over 3 ovarium cancer lines. The class given is cell-based. As to conditions: IGROV-1, OVC-3, OVC-8. As for the experimental part: as §1, §2
The subject of series [7] is 3 breast cancer cell lines (MDA-MB-231, MCF-7 and T-47D). Kind of series: Cytotoxicity, range over 3 breast cancer cell lines. The class given is cell-based. As to conditions: MDA-MB-231, MCF-7, T-47D. As for the experimental part: as §1, §2
A further series deals with OVC-5. Kind of series: Cytotoxicity (PrestoBlue), upper gastrointestinal cancer line. The class given is cell-based. The protocol: as §1, §2
For series [8], the system named is MCF-7. Kind of series: Cytotoxicity (PrestoBlue), breast cancer line. In kind it is cell-based. To be noted: MCF-7, 72 h incubation. As for the experimental part: as §1, §2
The test system of series [9] is T-47D. Kind of series: Cytotoxicity (PrestoBlue), breast cancer line. In kind it is cell-based. As to conditions: 72 h incubation. The protocol:
as §1, §2

Series [10] relates to Bone marrow MSCs (BM-MSC). Kind of series: Cytotoxicity, range over bone marrow MSCs. To be noted: BM-MSC and immortalized BM-MSC. The class given is cell-based. As for the experimental part:
as §1, §2

For `COc1cccc2c1C(=O)c1c(O)c3c(c(O)c1C2=O)C[C@@](O)(C(=O)CO)C[C@@H]3O[C@H]1C[C@H](N)[C@H](O)[C@H](C)O1` [Doxorubicin, doxorubicin, reference compound], the 50% inhibitory concentration (IC50) was 2.41 µM with Mes-Sa/Dx5 (Homo sapiens, MES-SA/Dx5, 144 h); 0.038 µM with Mes-Sa [1] (Homo sapiens); 0.19 µM with OVC-8; 0.067 µM with im. BM-MSC (BMMSC); 0.1 µM with BM-MSC (BMMSC); 0.13 µM in the series with AD-MSC (Mesenchymal stem cells, 96 h). The values for the IC50 in the series with MSCs, in the series with cancer lines and in the series with MDA-MB-231 (Homo sapiens) were 0.067 to 0.13 µM, 0.034 to 0.22 µM and 0.22 µM, respectively.
As to `Cc1c(C)n(Cc2ccccc2)[c](=[Ag][Cl])n1Cc1ccccc1` [Ag-LA, Chloro-(1,3-dibenzyl-4,5-dimethyl-imidazol-2-ylidene)silver], the IC50 with Mes-Sa/Dx5 was 12 µM; with Mes-Sa [1], 7.9 µM; in the series on OVC-8, 17.4 µM; with OVC-3 it was 16.3 µM; in the series on IGROV-1, 15 µM; in the series on Mes-Sa B1 it was 20.5 µM. Besides, the IC50 was 13.6 µM in the series on im. BM-MSC; 15.7 µM in the series on BM-MSC; 15.6 µM in the series on AD-MSC; 10.5 to 17.4 µM in [6]; 5.8 to 12 µM in series [7]; 40.7 µM in the series on OVC-5 (OVC-5, 72 h incubation, PrestoBlue). Moreover, the IC50 in the series with MCF-7 [8] is 10.9 µM; with MDA-MB-231, 12 µM; in the series with T-47D [9] it was 5.83 µM; in series [10], 5.7 to 15.7 µM. For the same compound, the figures for the “More ROS compared to the medium” value in the series with MCF-7 [2] and in the series on Mes-Sa [4] were around 30% and around 50%, respectively. Further, the “Intracellular ROS production compared to the medium” value with T-47D [3] is listed as “ROS was not elevated”. The “AUC (HPLC-UV), single measurements 1-5” value is 898 and 911 and 926 and 921 and 877 in series [5] (0 h); 923 and 921 and 920 in series [5] (1 h); 922 and 921 and 923 and 928 in series [5] (2 h); 921 and 925 and 927 and 920 and 928 in series [5] (4 h); 922 and 924 and 923 in [5] (8 h); 921 and 922 in series [5] (16 h). Also, the “AUC (HPLC-UV), single measurements 1-5” value in [5] (32 h) is 925 and 926 and 924; in series [5] (48 h), 917 and 922 and 920. The “AUC (HPLC-UV), average” value in series [5] (0 h, Cu-LA, Ag-LA 1% DMSO, Au-LA 30% DMSO) amounted to 907; in series [5] (1 h) it was 922; in [5] (2 h), 923; in series [5] (4 h), 924; in series [5] (8 h) it was 923; in [5] (16 h), 922. Moreover, the “AUC (HPLC-UV), average” value in series [5] (32 h) is 925; in series [5] (48 h), 921. Besides, the “Stability in serum-free culture medium” value in [5] (HPLC-UV, observed 48 h) is “stable”. Besides, the “Lower susceptibility of OVC-5 compared to the ovarian cancer lines” value in the series on OVC-5 (OVC-5 vs ovarian cancer lines) is listed as 2.5 fold.

For orientation: IC50 means the concentration at which inhibition is half-maximal.
